Values after ≈ are worked out from the molar mass of the structure shown.

The target of data set [1] is human Fibroblast activation protein alpha (hFAP) (Homo sapiens (Human), UniProt Q12884). Nature of the data set: hFAP inhibition assay (tight binders). Note: hFAP 2.4 pM. The class given is biochemical. As to conditions: Ala-Pro-AMC 20 μM, n = 1 or geometric mean n = 2-6. The method, then:
The plates were read on a PHERAstar® reader with excitation 340 nm and emission 460 nm. Data were analyzed in Genedata Screener®. IC50 values were determined by plotting % inhibition versus log compound concentration and using a one site dose response model.

The target in the next data set is hFAP (M39-A757) (Homo sapiens (Human), UniProt Q12884). Briefly: hFAP binding assay (surface plasmon resonance). As to conditions: SPR, 20° C.; for hFAP Binding assay k(off) / hFAP Binding assay k(on): single cycle kinetics; for Kd: n = 1 or geometric mean n = 2-4. Background: SPR reads the build-up and loss of mass on a sensor chip optically.
The target of data set [2] is Prolyl endopeptidase, Prolyl Oligopeptidase (hPREP) (Homo sapiens (Human), UniProt P48147). Briefly: hPrep inhibition assay. It is filed as biochemical. As to conditions: hPREP 0.6 nM, Z-Gly-Pro-amino-methylcoumarin 50 μM; read-out: PREP IC50. The method in brief:
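Fluorogenic read-out (340 nm excitation, 460 nm emission) after 20 min at rt, using 50 μM final Z-Gly-Pro-aminomethylcoumarin and 0.6 nM final enzyme, following 15 min compound preincubation. Buffer pH 7.5 with glutathione and Triton X-100. IC50 via one-site model on % inhibition vs log concentration.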

Data set [3] can be described thus: Metabolic stability in human liver microsomes (HLM). The note with it: human. Background: Liver microsomes are a subcellular fraction often used to study metabolism.
Experimental: Metabolic stability in HLM was measured as described in J Comput Aided Mol Des 2015, 29, 795.
The nature of another data set: Kinetic solubility. As to conditions: kinetic from dmso stock.
The next data set concerns the target FAP (Homo sapiens (Human), UniProt Q12884). Nature of the data set: hFAP inhibition assay. The class given is biochemical. As to conditions: hFAP […], Ala-Pro-AMC 20 μM; n = 1 or geometric mean n = 2-3. In a few lines:
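Compounds (10-point, 3-fold dilutions from 50 μM top) were preincubated 15 min at rt in the dark with 0.48 nM hFAP in pH 7.4 Tris/NaCl/Chaps buffer. Reaction was started with substrate (40 μM solution) and ran 30 min at rt. Read by fluorescence (340/460 nm); IC50 from one-site fit.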

Data set [4] is described as follows: Metabolic stability in rat hepatocytes (rHep). As to conditions: n = 1 or geometric mean of n = 2-3.
[5] abbreviates: HLM CLint, n = 1 or average of n = 2-3.
Setting [6] is: Solubility, kinetic solubility, n = 1 or average of n = 2-3.

Prolyl endopeptidase, Prolyl Oligopeptidase (hPREP), sequence (P48147 whole entry): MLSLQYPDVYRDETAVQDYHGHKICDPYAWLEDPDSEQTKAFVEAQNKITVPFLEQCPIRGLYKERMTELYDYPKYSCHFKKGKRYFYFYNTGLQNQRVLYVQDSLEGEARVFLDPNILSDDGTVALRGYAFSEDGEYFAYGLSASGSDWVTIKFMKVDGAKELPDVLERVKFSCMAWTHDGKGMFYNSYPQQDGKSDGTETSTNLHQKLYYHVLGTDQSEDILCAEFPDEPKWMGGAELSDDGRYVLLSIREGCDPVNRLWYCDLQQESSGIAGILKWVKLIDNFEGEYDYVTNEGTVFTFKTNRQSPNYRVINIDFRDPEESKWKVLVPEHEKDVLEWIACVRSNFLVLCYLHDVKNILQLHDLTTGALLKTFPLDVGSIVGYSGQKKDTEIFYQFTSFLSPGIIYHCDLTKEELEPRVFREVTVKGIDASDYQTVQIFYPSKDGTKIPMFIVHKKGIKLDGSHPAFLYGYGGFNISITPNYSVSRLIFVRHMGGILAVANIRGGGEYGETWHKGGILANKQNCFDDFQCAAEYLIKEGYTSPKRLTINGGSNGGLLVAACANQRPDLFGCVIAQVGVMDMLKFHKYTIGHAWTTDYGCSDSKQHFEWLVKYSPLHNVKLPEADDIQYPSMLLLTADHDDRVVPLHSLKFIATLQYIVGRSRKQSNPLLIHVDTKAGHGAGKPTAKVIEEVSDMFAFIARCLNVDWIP
human Fibroblast activation protein alpha (hFAP), sequence (Q12884 38-760): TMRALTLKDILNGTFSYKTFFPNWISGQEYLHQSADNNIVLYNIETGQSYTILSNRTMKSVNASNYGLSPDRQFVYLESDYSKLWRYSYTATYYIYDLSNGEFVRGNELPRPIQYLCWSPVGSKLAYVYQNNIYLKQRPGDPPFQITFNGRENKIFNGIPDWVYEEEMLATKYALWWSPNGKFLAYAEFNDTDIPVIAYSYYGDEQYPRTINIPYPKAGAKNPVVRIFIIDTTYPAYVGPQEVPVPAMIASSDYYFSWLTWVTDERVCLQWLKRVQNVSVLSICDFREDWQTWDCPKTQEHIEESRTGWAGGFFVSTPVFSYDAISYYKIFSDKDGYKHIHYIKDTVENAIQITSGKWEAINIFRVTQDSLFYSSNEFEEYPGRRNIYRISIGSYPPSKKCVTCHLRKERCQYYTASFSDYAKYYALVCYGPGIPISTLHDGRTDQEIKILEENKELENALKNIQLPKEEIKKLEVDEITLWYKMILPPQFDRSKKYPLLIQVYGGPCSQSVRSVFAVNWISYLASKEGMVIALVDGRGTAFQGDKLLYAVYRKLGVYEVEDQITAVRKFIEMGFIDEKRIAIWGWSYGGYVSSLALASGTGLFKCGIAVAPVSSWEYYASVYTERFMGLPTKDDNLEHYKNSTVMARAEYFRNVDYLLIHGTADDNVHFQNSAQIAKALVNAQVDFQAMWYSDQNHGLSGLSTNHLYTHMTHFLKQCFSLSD
FAP, sequence (Q12884 38-760): as above
hFAP (M39-A757), sequence (Q12884 39-757): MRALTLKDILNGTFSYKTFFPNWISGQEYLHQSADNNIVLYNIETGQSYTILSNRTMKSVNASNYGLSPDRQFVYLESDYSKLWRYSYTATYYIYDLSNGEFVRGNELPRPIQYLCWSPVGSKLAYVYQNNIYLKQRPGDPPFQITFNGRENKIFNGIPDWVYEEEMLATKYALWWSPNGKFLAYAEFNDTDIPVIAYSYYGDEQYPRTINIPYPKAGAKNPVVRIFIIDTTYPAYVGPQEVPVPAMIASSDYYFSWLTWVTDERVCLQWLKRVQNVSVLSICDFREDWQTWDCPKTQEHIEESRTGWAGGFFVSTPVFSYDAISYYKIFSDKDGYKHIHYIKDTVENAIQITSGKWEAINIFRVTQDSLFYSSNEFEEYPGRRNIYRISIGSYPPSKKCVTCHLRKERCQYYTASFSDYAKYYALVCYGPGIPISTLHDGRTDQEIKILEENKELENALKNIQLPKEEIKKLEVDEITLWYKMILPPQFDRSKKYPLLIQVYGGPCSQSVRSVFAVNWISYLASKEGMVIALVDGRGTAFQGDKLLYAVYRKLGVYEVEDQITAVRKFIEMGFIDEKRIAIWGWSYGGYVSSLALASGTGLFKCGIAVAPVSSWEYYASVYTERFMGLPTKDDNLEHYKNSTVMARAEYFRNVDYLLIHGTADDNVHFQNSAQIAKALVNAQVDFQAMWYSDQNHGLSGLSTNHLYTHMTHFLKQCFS
Experimental for Kinetic solubility: Kinetic solubility was measured as described in Comput Aided Mol Des 2015, 29, 795.
Experimental for hFAP (M39-A757): Compounds were tested in a direct binding assay using 8K surface plasmon resonance biosensor (GE Healthcare) at 20° C. Immobilization of hFAP (M39-A757) on a CMD200M sensor chip (Xantec) was performed using standard amine coupling procedure in immobilization buffer (10 mM HEPES, 150 mM NaCl, 0.05% Tween20, pH 7.4). The surface was washed with 10 mM NaOH, 1M NaCl before being activated with EDC/NHS (GE Healthcare), followed by immobilization of hFAP (in 10 mM Acetate pH 5.0). Finally, the surface was deactivated by ethanolamine. Immobilization levels of hFAP were around 4000-6000 RU. The reference spot was treated as described, omitting the injection of hFAP. Compound concentration series were injected over the immobilized protein in increasing concentrations (2-500 nM) using single cycle kinetics in running buffer (20 mM TRIS, 150 mM NaCl, 0.05% Tween20, 1% DMSO, pH 7.4). Interaction models were fitted globally to the experimental traces, enabling determination of kon, koff and Kd.

Usually IC50 stands for the concentration at which inhibition is half-maximal. By Kd is commonly meant a measure of binding affinity in units of concentration. The term microsomal CLint denotes the capacity of the preparation to metabolise the compound, expressed as a volume cleared per time. The solubility is how much of the substance goes into solution per volume. `N#C[C@@H]1CSCN1C(=O)CNC(=O)c1ccnc2ccc(N3CC4CCCC4C3)cc12` (stereo partly drawn) [Example 53, N-(2-((R)-4-Cyanothiazolidin-3-yl)-2-oxoethyl)-6-(hexahydrocyclopenta[c]pyrrol-2(1H)-yl)quinoline-4-carboxamide] registered an IC50 in data set [1] of 0.18 nM. On hFAP (M39-A757), the “hFAP Binding assay k(off)” value is 0.000050 s⁻¹, the “hFAP Binding assay k(on)” value is 680000 M⁻¹ s⁻¹ and binding was characterised by a dissociation constant (Kd) of 0.074 nM. For the same compound, in data set [2], the half-maximal inhibitory concentration (IC50) stood at 170 nM. The compound also came in with a microsomal CLint in data set [3] (setting [5]) of 120 µL/min/mg. Besides, the solubility in the data set “Kinetic solubility” (setting [6]) was 2.6 µM (≈ 1.13 µg/mL). The same compound registered an IC50 against FAP of 0.27 nM. Besides, in data set [4], the “rHep CLint” value came out at 71 μL/min/1E6.

`C[C@H]1CCN(c2ccc3nccc(C(=O)NCC(=O)N4CSC[C@H]4C#N)c3c2)C1` [Example 54, N-(2-((R)-4-Cyanothiazolidin-3-yl)-2-oxoethyl)-6-((S)-3-methylpyrrolidin-1-yl)quinoline-4-carboxamide] registered an IC50 in data set [1] of 0.062 nM. Further, on hFAP (M39-A757), the “hFAP Binding assay k(off)” value came out at 0.00023 s⁻¹, the “hFAP Binding assay k(on)” value turned out to be 6200000 M⁻¹ s⁻¹ and the Kd was determined as 0.045 nM. The IC50 in data set [2] is 300 nM. In data set [3] (setting [5]), the microsomal CLint is 57 µL/min/mg. Further, the concentration in solution in the data set “Kinetic solubility” (setting [6]) (solubility) came to 13 µM (≈ 5.32 µg/mL). This compound also gave an IC50 against FAP of 0.22 nM. Besides, in data set [4], the “rHep CLint” value is given as 49 μL/min/1E6.

Compound `C[C@@H]1CCN(c2ccc3nccc(C(=O)NCC(=O)N4CSC[C@H]4C#N)c3c2)C1` [Example 55, N-(2-((R)-4-Cyanothiazolidin-3-yl)-2-oxoethyl)-6-((R)-3-methylpyrrolidin-1-yl)quinoline-4-carboxamide] had an IC50 in data set [1] of 0.083 nM. Further, at hFAP (M39-A757), the “hFAP Binding assay k(off)” value was determined as 0.00025 s⁻¹, the “hFAP Binding assay k(on)” value came out at 6700000 M⁻¹ s⁻¹ and binding was characterised by a dissociation constant (Kd) of 0.036 nM. The IC50 in data set [2] was determined as 440 nM. In data set [3] (setting [5]), this compound gave a microsomal CLint of 55 µL/min/mg. This compound showed a solubility in the data set “Kinetic solubility” (setting [6]) of 11 µM (≈ 4.5 µg/mL). The same compound showed an IC50 at FAP of 0.25 nM. The “rHep CLint” value in data set [4] stood at 63 μL/min/1E6.

`N#C[C@@H]1CSCN1C(=O)CNC(=O)c1ccnc2ccc(N3CCC[C@H]3C(F)(F)F)cc12` [Example 56, N-(2-((R)-4-Cyanothiazolidin-3-yl)-2-oxoethyl)-6-((S)-2-(trifluoromethyl)-pyrrolidin-1-yl)quinoline-4-carboxamide] displayed an IC50 in data set [1] of 0.19 nM. Besides, at hFAP (M39-A757), the “hFAP Binding assay k(off)” value was determined as 0.00011 s⁻¹, the “hFAP Binding assay k(on)” value was 540000 M⁻¹ s⁻¹ and binding was put at a Kd of 0.14 nM. Besides, the IC50 in data set [2] is 220 nM. In data set [3] (setting [5]), this compound returned a microsomal CLint of over 300 µL/min/mg. The concentration in solution in the data set “Kinetic solubility” (setting [6]) (solubility) was 5.9 µM (≈ 2.73 µg/mL). Also, half-maximal inhibition at FAP (IC50) was put at 0.44 nM. Besides, the “rHep CLint” value in data set [4] came to 160 μL/min/1E6.

In turn, `CC1(C)CCCN1c1ccc2nccc(C(=O)NCC(=O)N3CSC[C@H]3C#N)c2c1` [Example 57, (R)—N-(2-(4-Cyanothiazolidin-3-yl)-2-oxoethyl)-6-(2,2-dimethylpyrrolidin-1-yl)quinoline-4-carboxamide] gave an IC50 in data set [1] of 0.098 nM. Besides, on hFAP (M39-A757), the “hFAP Binding assay k(off)” value stood at 0.00018 s⁻¹, the “hFAP Binding assay k(on)” value stood at 8000000 M⁻¹ s⁻¹ and the Kd was 0.022 nM. In addition, the IC50 in data set [2] was 160 nM. The microsomal CLint in data set [3] (setting [5]) is over 300 µL/min/mg. The concentration in solution in “Kinetic solubility” (setting [6]) (solubility) was 150 µM (≈ 63.5 µg/mL). Besides, the midpoint of inhibition against FAP, the IC50, lay at 0.26 nM. Besides, the “rHep CLint” value in data set [4] is reported as over 300 μL/min/1E6.

Take `N#C[C@@H]1CSCN1C(=O)CNC(=O)c1ccnc2ccc(N3CC4(CC4)C[C@@H]3CF)cc12` [Example 58, N-(2-((R)-4-Cyanothiazolidin-3-yl)-2-oxoethyl)-6-((R)-6-(fluoromethyl)-5-azaspiro[2.4]heptan-5-yl)quinoline-4-carboxamide]: in data set [1], the IC50 is 0.076 nM. Moreover, at hFAP (M39-A757), the “hFAP Binding assay k(off)” value was 0.091 s⁻¹, the “hFAP Binding assay k(on)” value is 8800000000 M⁻¹ s⁻¹ and binding was characterised by a dissociation constant (Kd) of 0.016 nM. Besides, the IC50 in data set [2] is 180 nM. The same compound yielded a microsomal CLint in data set [3] of 140 µL/min/mg. The solubility in “Kinetic solubility” was 5.8 µM (≈ 2.63 µg/mL). On FAP, it took 0.23 nM to reach half-maximal inhibition (IC50). Also, the “rHep CLint” value in data set [4] was 72 μL/min/1E6.

On to `N#C[C@@H]1CSCN1C(=O)CNC(=O)c1ccnc2ccc(N3CCCC[C@@H](F)C3)cc12` [Example 59, N-(2-((R)-4-Cyanothiazolidin-3-yl)-2-oxoethyl)-6-((R)-3-fluoroazepan-1-yl)quinoline-4-carboxamide], for which the results for the IC50 (in data set [1]; in data set [2]; against FAP) were 0.061 nM, 30 nM and 0.27 nM, respectively. At hFAP (M39-A757), the “hFAP Binding assay k(off)” value turned out to be 0.00019 s⁻¹. In addition, the “hFAP Binding assay k(on)” value at hFAP (M39-A757) worked out at 2600000 M⁻¹ s⁻¹. Further, binding at hFAP (M39-A757) was characterised by a dissociation constant (Kd) of 0.087 nM. The compound further gave a microsomal CLint in data set [3] (setting [5]) of over 300 µL/min/mg. Further, the solubility in the data set “Kinetic solubility” (setting [6]) is 40 µM (≈ 17.7 µg/mL). In data set [4], the “rHep CLint” value is listed as 91 μL/min/1E6.

The compound `N#C[C@@H]1CSCN1C(=O)CNC(=O)c1ccnc2ccc(N3CCCC[C@H](F)C3)cc12` [Example 60, N-(2-((R)-4-Cyanothiazolidin-3-yl)-2-oxoethyl)-6-((S)-3-fluoroazepan-1-yl)quinoline-4-carboxamide] yielded an IC50 in data set [1] of 0.14 nM. Further, at hFAP (M39-A757), the “hFAP Binding assay k(off)” value came to 0.00017 s⁻¹, the “hFAP Binding assay k(on)” value amounted to 1700000 M⁻¹ s⁻¹ and the Kd is 0.099 nM. In addition, the IC50 in data set [2] came to 86 nM. In addition, the microsomal CLint in data set [3] (setting [5]) is 210 µL/min/mg. Besides, the solubility in “Kinetic solubility” (setting [6]) is 160 µM (≈ 70.6 µg/mL). Further, at FAP, the IC50 came to 0.22 nM. For the same compound, in data set [4], the “rHep CLint” value is given as 120 μL/min/1E6.

Consider `C[C@@H]1CCN(c2ccc3nccc(C(=O)NCC(=O)N4CSC[C@H]4C#N)c3c2)CCO1` [Example 61, N-(2-((R)-4-Cyanothiazolidin-3-yl)-2-oxoethyl)-6-((R)-7-methyl-1,4-oxazepan-4-yl)quinoline-4-carboxamide], for which the IC50 in data set [1] came out at 0.06 nM; in data set [2], 390 nM; at FAP, 0.21 nM. On hFAP (M39-A757), this compound showed a Kd of 0.062 nM. The same compound returned a microsomal CLint in data set [3] (setting [5]) of 47 µL/min/mg. This compound gave a solubility in the data set “Kinetic solubility” (setting [6]) of 670 µM (≈ 294 µg/mL). The “rHep CLint” value in data set [4] was 26 μL/min/1E6.

In the case of `C[C@H]1CCN(c2ccc3nccc(C(=O)NCC(=O)N4CSC[C@H]4C#N)c3c2)CCO1` [Example 62, N-(2-((R)-4-Cyanothiazolidin-3-yl)-2-oxoethyl)-6-((S)-7-methyl-1,4-oxazepan-4-yl)quinoline-4-carboxamide], the IC50 in data set [1] is 0.058 nM. For the same compound, on hFAP (M39-A757), the “hFAP Binding assay k(off)” value was found to be 0.000085 s⁻¹, the “hFAP Binding assay k(on)” value came out at 710000 M⁻¹ s⁻¹ and binding was put at a Kd of 0.12 nM. For the same compound, the IC50 in data set [2] turned out to be 280 nM. For the same compound, the microsomal CLint in data set [3] (setting [5]) stood at 31 µL/min/mg. Further, the concentration in solution in “Kinetic solubility” (setting [6]) (solubility) was 640 µM (≈ 281 µg/mL). The IC50 against FAP came to 0.25 nM. The “rHep CLint” value in data set [4] worked out at 46 μL/min/1E6.

For `C[C@H]1COCCCN1c1ccc2nccc(C(=O)NCC(=O)N3CSC[C@H]3C#N)c2c1` [Example 63, N-(2-((R)-4-Cyanothiazolidin-3-yl)-2-oxoethyl)-6-((S)-3-methyl-1,4-oxazepan-4-yl)quinoline-4-carboxamide], the IC50 in data set [1] is 0.19 nM. For the same compound, on hFAP (M39-A757), the “hFAP Binding assay k(off)” value stood at 0.000059 s⁻¹, the “hFAP Binding assay k(on)” value is 4100000 M⁻¹ s⁻¹ and binding was characterised by a dissociation constant (Kd) of 0.03 nM. In addition, in data set [2], the IC50 was 400 nM. This compound also came in with a microsomal CLint in data set [3] (setting [5]) of 180 µL/min/mg. The concentration in solution in the data set “Kinetic solubility” (setting [6]) (solubility) was 690 µM (≈ 303 µg/mL). Half-maximal inhibition against FAP (IC50) was put at 0.33 nM. Besides, in data set [4], the “rHep CLint” value turned out to be 30 μL/min/1E6.

Source of the values: patent US20230312550A1, “N-(2-(4-CYANOTHIAZOLIDIN-3-YL)-2-OXOETHYL)-QUINOLINE-4-CARBOXAMIDES” (AstraZeneca AB, priority 2020, published 2023).
